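Step 1: Grow cells in 96-well plates. Step 2: Expose to compound for 48 hours at 5 concentrations. Step 3: Interpolate endpoints linearly; if unreached, use highest concentration. The concentration for 50% growth inhibition is given as GI50.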 Calls of active or inactive are those of the source. Rule as the data show it: active = GI50 up to about 1.1 µM and inactive = higher.
Legend:
Assay in all cases: NCI-60 cell line screen, 48 h
DU-145 = tested on: DU-145
CAKI-1 = tested on: CAKI-1
A498 = tested on: A498
NCI-H226 = tested on: NCI-H226
NCI/ADR-RES = tested on: NCI/ADR-RES
HCT-15 = tested on: HCT-15
UACC-62 = tested on: UACC-62
M14 = tested on: M14
MOLT-4 = tested on: MOLT-4
SF-295 = tested on: SF-295
NCI-H460 = tested on: NCI-H460
OVCAR-5 = tested on: OVCAR-5
UO-31 = tested on: UO-31
KM12 = tested on: KM12
NCI-H522 = tested on: NCI-H522
SK-MEL-5 = tested on: SK-MEL-5
UACC-257 = tested on: UACC-257
HOP-92 = tested on: HOP-92
HL-60 = tested on: HL-60
K562 = tested on: K562

SMILES | GI50 (DU-145) | GI50 (CAKI-1) | GI50 (A498) | GI50 (NCI-H226) | GI50 (NCI/ADR-RES) | GI50 (HCT-15) [µM] | GI50 (UACC-62) | GI50 (M14) | GI50 (MOLT-4) | GI50 (SF-295) | GI50 (NCI-H460) | GI50 (OVCAR-5) | GI50 (UO-31) | GI50 (KM12) | GI50 (NCI-H522) | GI50 (SK-MEL-5) | GI50 (UACC-257) | GI50 (HOP-92) | GI50 (HL-60) | GI50 (K562)
C[N+]12C=CC=C1C(N1CCCC1)c1sc(-c3ccc(Cl)cc3)cc12 (stereo unspecified) | 16.9 µM (inactive) | > 100 µM (inactive) | 18.8 µM (inactive) | 17 µM (inactive) | 36.9 µM (inactive) | 30.5 | 15.1 µM (inactive) | 17.1 µM (inactive) | 16.9 µM (inactive) | 20.3 µM (inactive) | 18.1 µM (inactive) | 19.2 µM (inactive) | 33 µM (inactive) | 17 µM (inactive) | 10.4 µM (inactive) | 17.9 µM (inactive) | 15.5 µM (inactive) |  |  | 
CC(=O)/C(=C\c1ccc(Cl)c(Cl)c1)C(=O)C(C)CN(C)C (stereo unspecified) | 4.43 µM (inactive) | 4.48 µM (inactive) | 2.96 µM (inactive) | 2.39 µM (inactive) | 13.1 µM (inactive) | 2.33 |  | 9.75 µM (inactive) | 2.19 µM (inactive) | 4.32 µM (inactive) | 12.5 µM (inactive) | 10.8 µM (inactive) | 4.01 µM (inactive) | 2.18 µM (inactive) |  | 11.9 µM (inactive) | 10.4 µM (inactive) | 2.26 µM (inactive) | 2 µM (inactive) | 
COc1cc2c(cc1OC)-c1cc(OC)c(OC)cc1[C@H]1CN3CCC[C@@]3(O)C=C21 |  | < 0.0001 µM (active) | < 0.0001 µM (active) | < 0.0001 µM (active) |  | < 0.0001 | < 0.0001 µM (active) | < 0.0001 µM (active) | < 0.0001 µM (active) | < 0.0001 µM (active) | < 0.0001 µM (active) | < 0.0001 µM (active) | < 0.0001 µM (active) | < 0.0001 µM (active) | < 0.0001 µM (active) | < 0.0001 µM (active) | < 0.0001 µM (active) | < 0.0001 µM (active) | < 0.0001 µM (active) | < 0.0001 µM (active)
CCC1(CC)C(=O)OC(=O)C1(CC)CC | > 100 µM (inactive) | > 100 µM (inactive) | > 100 µM (inactive) |  | > 100 µM (inactive) | > 100 | > 100 µM (inactive) | > 100 µM (inactive) | > 100 µM (inactive) | > 100 µM (inactive) | > 100 µM (inactive) |  | > 100 µM (inactive) | > 100 µM (inactive) | > 100 µM (inactive) | > 100 µM (inactive) |  |  | > 100 µM (inactive) | > 100 µM (inactive)
O=C(NN=C1NCCCCN1)Nc1ccc(Cl)cc1 |  | > 100 µM (inactive) | > 100 µM (inactive) | 85.1 µM (inactive) | > 100 µM (inactive) | > 100 | > 100 µM (inactive) |  | 23.9 µM (inactive) | > 100 µM (inactive) | > 100 µM (inactive) | > 100 µM (inactive) | > 100 µM (inactive) | > 100 µM (inactive) | > 100 µM (inactive) | > 100 µM (inactive) | > 100 µM (inactive) | > 100 µM (inactive) | 26.5 µM (inactive) | 33 µM (inactive)
COc1ccc(OC)c2sc(N3C(=O)/C(=C/c4ccc(N(C)C)cc4)N=C3c3ccccc3)nc12 | > 100 µM (inactive) | > 100 µM (inactive) | 87.7 µM (inactive) |  | > 100 µM (inactive) | 59.2 | 28.3 µM (inactive) | 99.3 µM (inactive) | 15.5 µM (inactive) | > 100 µM (inactive) | 92.9 µM (inactive) | > 100 µM (inactive) | 55 µM (inactive) | 52 µM (inactive) |  | 39.2 µM (inactive) | > 100 µM (inactive) | > 100 µM (inactive) | 20.9 µM (inactive) | 79.8 µM (inactive)
Cc1ccc(/C(=C\C(=O)C(=O)NC23CC4CC(CC(C4)C2)C3)Sc2ccccc2)cc1 | > 10 µM (inactive) | > 10 µM (inactive) | > 10 µM (inactive) | > 10 µM (inactive) | > 10 µM (inactive) | > 10 |  | > 10 µM (inactive) | 4.63 µM (inactive) | > 10 µM (inactive) | > 10 µM (inactive) | > 10 µM (inactive) | > 10 µM (inactive) | > 10 µM (inactive) | > 10 µM (inactive) | > 10 µM (inactive) | > 10 µM (inactive) |  | 5.82 µM (inactive) | 4.76 µM (inactive)
CN1CCC2(CC1)/C(=N/C1CCCCC1)NC(=S)N2c1ccccc1 | > 100 µM (inactive) |  | > 100 µM (inactive) | > 100 µM (inactive) | > 100 µM (inactive) | > 100 | > 100 µM (inactive) | > 100 µM (inactive) | > 100 µM (inactive) | > 100 µM (inactive) | > 100 µM (inactive) | > 100 µM (inactive) | > 100 µM (inactive) | > 100 µM (inactive) |  | > 100 µM (inactive) | > 100 µM (inactive) | > 100 µM (inactive) | > 100 µM (inactive) | > 100 µM (inactive)
COC(=O)c1c2c(cc3c1CC1(Cc4cc5c(c(C(C)=O)c4C1)CCCC5)C3)CCCC2 (stereo unspecified) |  |  | > 100 µM (inactive) | > 100 µM (inactive) | > 100 µM (inactive) | > 100 | > 100 µM (inactive) | > 100 µM (inactive) |  | > 100 µM (inactive) |  | > 100 µM (inactive) |  | > 100 µM (inactive) | > 100 µM (inactive) | 34.1 µM (inactive) | 56 µM (inactive) | > 100 µM (inactive) | 12.6 µM (inactive) | 23.4 µM (inactive)
C[C@]12CCC3c4ccc(O)cc4CC[C@H]3C1CC(=O)N(CCN1CCCC1)C2=O (stereo partly specified) | > 10 µM (inactive) | > 10 µM (inactive) | > 10 µM (inactive) | > 10 µM (inactive) | > 10 µM (inactive) | > 10 | > 10 µM (inactive) | > 10 µM (inactive) | > 10 µM (inactive) | > 10 µM (inactive) | > 10 µM (inactive) | > 10 µM (inactive) | > 10 µM (inactive) | > 10 µM (inactive) |  | > 10 µM (inactive) | > 10 µM (inactive) |  | > 10 µM (inactive) | > 10 µM (inactive)
COc1cccc2c(NNc3ccc(Cl)cc3)c3ccc([N+](=O)[O-])cc3nc12 | 9.84 µM (inactive) | 2.28 µM (inactive) | 12.9 µM (inactive) | 13.9 µM (inactive) |  | 8.59 | 8.38 µM (inactive) | 12.3 µM (inactive) | 1.92 µM (inactive) | 16.2 µM (inactive) | 4.92 µM (inactive) | 22.9 µM (inactive) | 5.33 µM (inactive) | 18.7 µM (inactive) | 6.07 µM (inactive) | 12.4 µM (inactive) | 19.2 µM (inactive) | 10.9 µM (inactive) | 5.92 µM (inactive) | 11.7 µM (inactive)
Cc1cc(C)c(C(=O)c2nnc3ccccc3c2N)c(C)c1 | 27 µM (inactive) | 19.3 µM (inactive) | 26.9 µM (inactive) | 16.5 µM (inactive) | 24.3 µM (inactive) |  | 16.4 µM (inactive) | 13.9 µM (inactive) | 45.4 µM (inactive) |  |  | 15.8 µM (inactive) |  | 16.4 µM (inactive) |  | 13.5 µM (inactive) | 37.9 µM (inactive) | 3.65 µM (inactive) | 7.55 µM (inactive) | 

— ChEMBL document CHEMBL1201862, “PubChem BioAssay data set” (2004)
